Values quoted from earlier work, collected in patent publication US20100016828A1, “Drug Delivery System and Method” (priority 1995, published 2010).

Tests used:
[1] = intrathecal administration; at 1 hour
[2] = test system: blood-brain barrier; conditions: hyperosmolar saturated solution of 25% mannitol, intra-arterial infusion for approximately 30 seconds
[3] = cat brain

Compound: CN(Cc1cnc2nc(N)nc(N)c2n1)c1ccc(C(=O)N[C@@H](CCC(=O)O)C(=O)O)cc1 [methotrexate]
- depth of penetration into parenchymal tissue [1]: 3.2 mm

Compound: hematoporphyrin derivative [HpD]
- HpD uptake relative to normal brain tissue (glioblastomas): 30 times
- HpD uptake relative to normal tissue (low-grade tumors): 8 times

Compound: OC[C@@H](O)[C@@H](O)[C@H](O)[C@H](O)CO [mannitol]
- period of nonselective entry of substances into the CNS and tumor after blood-brain barrier disruption [2]: approximately 30 minutes

Compound: OC[C@H]1O[C@@](CO)(O[C@H]2O[C@H](CO)[C@@H](O)[C@H](O)[C@H]2O)[C@@H](O)[C@@H]1O [sucrose]
- distribution into gray matter ([3]; after interstitial infusion): extensively distributed into gray matter by two hours
- spread in an anterior-posterior direction ([3]; two hour infusions, immediately after completion of the infusion): ≈ 2.0 cm
